The source of these data is publication PMC7180948, “New Insights into 4-Anilinoquinazolines as Inhibitors of Cardiac Troponin I–Interacting Kinase (TNNi3K)” (Molecules, 2020).

Common to all, as to test: biochemical
What all share (design): KINOMEscan competition binding panel (Eurofins DiscoverX), single concentration, percent inhibition
Holding throughout (settings): read-out: 15 at 1 µM % inhibition

Experiment [1] addresses T1, ABL1(H396P)-nonphosphorylated (Homo sapiens, UniProt P00519, H396P).
T1 construct: nonphosphorylated
The gist of the method:
(§1)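 Values come from single-concentration (1 µM) profiling in the Eurofins DiscoverX KINOMEscan competition-binding platform, which covers over 400 kinases.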

A further experiment has as its target T2, ADCK4 (Homo sapiens, UniProt Q96D53).
T2 construct: gene COQ8B
In outline: as §1

The target in the next experiment is AKT2 (Homo sapiens, UniProt P31751). In outline: as §1
For a further experiment, the target named is ALK (Homo sapiens, UniProt Q9UM73). The gist of the method: as §1
For another experiment, the target named is T3, ASK1 (Homo sapiens, UniProt Q99683).
T3 construct: gene MAP3K5
T3 sequence (Q99683 whole entry): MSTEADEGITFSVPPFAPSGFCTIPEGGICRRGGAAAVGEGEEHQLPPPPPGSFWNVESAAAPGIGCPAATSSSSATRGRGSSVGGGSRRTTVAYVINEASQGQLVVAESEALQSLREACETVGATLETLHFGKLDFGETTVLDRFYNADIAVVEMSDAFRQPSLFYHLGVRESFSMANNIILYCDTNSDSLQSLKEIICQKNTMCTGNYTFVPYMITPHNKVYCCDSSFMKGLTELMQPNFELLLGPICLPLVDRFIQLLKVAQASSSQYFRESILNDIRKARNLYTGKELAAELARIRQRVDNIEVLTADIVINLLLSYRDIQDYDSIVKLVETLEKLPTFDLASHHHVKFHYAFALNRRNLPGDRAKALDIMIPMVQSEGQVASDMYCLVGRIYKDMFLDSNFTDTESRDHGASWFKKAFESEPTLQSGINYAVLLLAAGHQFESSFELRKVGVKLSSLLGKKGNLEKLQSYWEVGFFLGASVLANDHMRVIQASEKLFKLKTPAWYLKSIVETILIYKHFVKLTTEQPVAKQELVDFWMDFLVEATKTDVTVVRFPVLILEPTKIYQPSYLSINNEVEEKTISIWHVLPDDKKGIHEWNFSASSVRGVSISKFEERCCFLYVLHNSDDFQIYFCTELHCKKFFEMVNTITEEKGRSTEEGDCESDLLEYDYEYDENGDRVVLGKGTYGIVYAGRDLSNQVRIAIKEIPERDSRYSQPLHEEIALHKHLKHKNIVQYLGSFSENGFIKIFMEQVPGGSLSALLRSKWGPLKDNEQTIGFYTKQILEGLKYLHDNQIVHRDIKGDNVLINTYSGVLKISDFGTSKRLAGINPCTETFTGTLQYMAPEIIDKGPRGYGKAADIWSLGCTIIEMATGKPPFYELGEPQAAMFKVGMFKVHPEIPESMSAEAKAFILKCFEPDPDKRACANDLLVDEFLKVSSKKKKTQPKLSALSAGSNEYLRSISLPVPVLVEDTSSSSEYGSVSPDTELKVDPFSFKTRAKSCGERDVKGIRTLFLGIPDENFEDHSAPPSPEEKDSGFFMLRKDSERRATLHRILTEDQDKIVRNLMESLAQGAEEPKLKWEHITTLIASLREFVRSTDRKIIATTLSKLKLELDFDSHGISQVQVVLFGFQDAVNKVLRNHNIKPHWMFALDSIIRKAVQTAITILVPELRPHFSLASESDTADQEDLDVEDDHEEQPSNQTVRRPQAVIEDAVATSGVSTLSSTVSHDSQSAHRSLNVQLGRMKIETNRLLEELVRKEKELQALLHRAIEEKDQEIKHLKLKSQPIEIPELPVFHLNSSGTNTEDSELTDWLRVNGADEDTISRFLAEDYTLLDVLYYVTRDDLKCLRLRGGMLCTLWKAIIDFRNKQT
In outline:
as §1

The target in a further experiment is CAMKK2 (Homo sapiens, UniProt Q96RR4). In outline: as §1
In another experiment the target is T4, CDC2L2 (Homo sapiens, UniProt Q9UQ88).
T4 construct: gene CDK11A
The gist of the method:
as §1

The target in another experiment is CSNK1A1 (Homo sapiens, UniProt P48729). In outline:
as §1

In another experiment the target is EPHB3 (Homo sapiens, UniProt P54753). In outline: as §1
Chain of EPHB3 (P54753 whole entry): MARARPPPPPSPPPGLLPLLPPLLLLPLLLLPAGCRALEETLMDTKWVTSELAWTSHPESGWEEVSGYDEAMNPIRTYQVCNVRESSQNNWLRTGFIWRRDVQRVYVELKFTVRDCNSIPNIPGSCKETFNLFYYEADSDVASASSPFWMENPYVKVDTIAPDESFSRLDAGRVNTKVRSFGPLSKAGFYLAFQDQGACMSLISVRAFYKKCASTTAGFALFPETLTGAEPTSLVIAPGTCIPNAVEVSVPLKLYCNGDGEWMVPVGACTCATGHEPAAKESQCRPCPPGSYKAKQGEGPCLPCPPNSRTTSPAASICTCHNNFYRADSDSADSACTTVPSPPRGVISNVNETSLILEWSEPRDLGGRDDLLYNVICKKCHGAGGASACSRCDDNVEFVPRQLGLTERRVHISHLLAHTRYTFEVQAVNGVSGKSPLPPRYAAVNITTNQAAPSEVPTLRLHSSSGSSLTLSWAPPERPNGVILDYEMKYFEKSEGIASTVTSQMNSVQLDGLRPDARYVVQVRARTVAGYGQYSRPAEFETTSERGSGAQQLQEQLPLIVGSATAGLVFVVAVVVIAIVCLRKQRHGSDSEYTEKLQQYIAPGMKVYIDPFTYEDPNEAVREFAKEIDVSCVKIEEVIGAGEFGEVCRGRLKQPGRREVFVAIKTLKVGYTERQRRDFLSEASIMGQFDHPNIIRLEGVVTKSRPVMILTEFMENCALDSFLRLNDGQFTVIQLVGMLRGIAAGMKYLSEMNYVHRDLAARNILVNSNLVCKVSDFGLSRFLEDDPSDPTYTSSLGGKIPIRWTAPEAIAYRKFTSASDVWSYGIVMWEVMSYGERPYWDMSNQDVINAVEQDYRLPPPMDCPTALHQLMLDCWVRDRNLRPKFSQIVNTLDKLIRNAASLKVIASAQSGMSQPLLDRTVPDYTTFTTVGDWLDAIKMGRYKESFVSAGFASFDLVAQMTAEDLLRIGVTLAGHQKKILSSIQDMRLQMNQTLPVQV
The next experiment concerns the target LRRK2 (Homo sapiens, UniProt Q5S007). The gist of the method:
as §1

Another experiment has as its target MAP3K1 (Homo sapiens, UniProt Q13233). The gist of the method:
as §1

The next experiment has as its target MAPKAPK5 (Homo sapiens, UniProt Q8IW41). The gist of the method: as §1
The target of a further experiment is T5, NDR2 (Homo sapiens, UniProt Q9Y2H1).
T5 construct: gene STK38L
In outline: as §1

Another experiment addresses PIK3CA(E545K) (Homo sapiens, UniProt P42336, E545K). The gist of the method:
as §1

In a further experiment the target is PIM2 (Homo sapiens, UniProt Q9P1W9). The gist of the method: as §1
In a further experiment the target is PRKX (Homo sapiens, UniProt P51817). The gist of the method:
as §1

Another experiment deals with T6, QSK (Homo sapiens, UniProt Q9Y2K2).
T6 construct: gene SIK3
T6 sequence (Q9Y2K2 whole entry): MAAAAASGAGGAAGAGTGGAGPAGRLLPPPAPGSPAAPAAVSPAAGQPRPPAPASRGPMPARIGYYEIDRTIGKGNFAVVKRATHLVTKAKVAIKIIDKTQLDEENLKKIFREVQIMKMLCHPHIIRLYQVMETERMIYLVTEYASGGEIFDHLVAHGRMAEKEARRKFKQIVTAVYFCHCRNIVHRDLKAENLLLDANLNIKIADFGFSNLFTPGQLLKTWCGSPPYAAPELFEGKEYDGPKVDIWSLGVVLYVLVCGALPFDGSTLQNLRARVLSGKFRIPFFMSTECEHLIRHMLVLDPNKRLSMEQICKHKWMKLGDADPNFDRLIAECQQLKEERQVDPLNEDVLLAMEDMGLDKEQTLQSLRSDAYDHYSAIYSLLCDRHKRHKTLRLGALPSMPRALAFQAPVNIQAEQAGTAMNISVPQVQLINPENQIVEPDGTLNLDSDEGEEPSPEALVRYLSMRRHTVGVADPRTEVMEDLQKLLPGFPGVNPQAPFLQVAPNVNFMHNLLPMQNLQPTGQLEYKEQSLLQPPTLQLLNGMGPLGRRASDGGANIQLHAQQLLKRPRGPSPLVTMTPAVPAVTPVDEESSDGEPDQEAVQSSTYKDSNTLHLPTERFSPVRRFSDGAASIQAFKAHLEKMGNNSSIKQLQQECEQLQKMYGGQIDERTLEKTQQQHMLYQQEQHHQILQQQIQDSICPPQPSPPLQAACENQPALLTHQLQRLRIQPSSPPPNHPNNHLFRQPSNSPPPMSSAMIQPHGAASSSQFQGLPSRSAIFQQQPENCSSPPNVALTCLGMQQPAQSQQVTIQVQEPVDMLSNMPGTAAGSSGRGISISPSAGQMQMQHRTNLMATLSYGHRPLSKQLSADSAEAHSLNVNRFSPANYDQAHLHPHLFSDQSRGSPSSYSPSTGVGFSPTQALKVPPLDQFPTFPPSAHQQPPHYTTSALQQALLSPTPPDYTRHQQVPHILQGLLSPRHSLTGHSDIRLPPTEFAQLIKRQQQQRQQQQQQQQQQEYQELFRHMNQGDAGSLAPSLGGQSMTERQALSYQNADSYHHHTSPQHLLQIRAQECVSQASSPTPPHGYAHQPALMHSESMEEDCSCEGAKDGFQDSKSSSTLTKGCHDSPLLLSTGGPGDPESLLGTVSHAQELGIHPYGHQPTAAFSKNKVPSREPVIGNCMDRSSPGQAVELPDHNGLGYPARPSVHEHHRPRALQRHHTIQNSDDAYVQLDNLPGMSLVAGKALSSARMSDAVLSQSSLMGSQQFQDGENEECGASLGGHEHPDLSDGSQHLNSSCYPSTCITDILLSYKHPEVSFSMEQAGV
In outline:
as §1

The target in another experiment is SGK3 (Homo sapiens, UniProt Q96BR1). In outline: as §1
In another experiment the target is STK33 (Homo sapiens, UniProt Q9BYT3). In outline: as §1
A further experiment has as its target T7, TIE2 (Homo sapiens, UniProt Q02763).
T7 construct: gene TEK
The gist of the method: as §1

In a further experiment the target is TXK (Homo sapiens, UniProt P42681). In outline:
as §1

The target in the next experiment is VRK2 (Homo sapiens, UniProt Q86Y07). In outline: as §1
The target in another experiment is ZAP70 (Homo sapiens, UniProt P43403). The gist of the method: as §1
The target of a further experiment is T8, p38-gamma (Homo sapiens, UniProt P53778).
T8 construct: gene MAPK12
T8 sequence (P53778 whole entry): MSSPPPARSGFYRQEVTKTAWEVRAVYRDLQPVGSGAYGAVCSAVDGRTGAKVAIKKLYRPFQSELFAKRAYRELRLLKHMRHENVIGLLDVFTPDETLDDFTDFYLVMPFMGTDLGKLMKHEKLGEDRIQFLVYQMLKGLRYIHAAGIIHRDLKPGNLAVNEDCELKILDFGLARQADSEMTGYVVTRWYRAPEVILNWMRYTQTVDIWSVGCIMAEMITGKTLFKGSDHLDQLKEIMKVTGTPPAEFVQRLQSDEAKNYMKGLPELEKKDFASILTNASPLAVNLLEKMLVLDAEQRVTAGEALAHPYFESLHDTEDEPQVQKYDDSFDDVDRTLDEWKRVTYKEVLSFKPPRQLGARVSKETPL
The gist of the method: as §1

T2 sequence (Q96D53 whole entry): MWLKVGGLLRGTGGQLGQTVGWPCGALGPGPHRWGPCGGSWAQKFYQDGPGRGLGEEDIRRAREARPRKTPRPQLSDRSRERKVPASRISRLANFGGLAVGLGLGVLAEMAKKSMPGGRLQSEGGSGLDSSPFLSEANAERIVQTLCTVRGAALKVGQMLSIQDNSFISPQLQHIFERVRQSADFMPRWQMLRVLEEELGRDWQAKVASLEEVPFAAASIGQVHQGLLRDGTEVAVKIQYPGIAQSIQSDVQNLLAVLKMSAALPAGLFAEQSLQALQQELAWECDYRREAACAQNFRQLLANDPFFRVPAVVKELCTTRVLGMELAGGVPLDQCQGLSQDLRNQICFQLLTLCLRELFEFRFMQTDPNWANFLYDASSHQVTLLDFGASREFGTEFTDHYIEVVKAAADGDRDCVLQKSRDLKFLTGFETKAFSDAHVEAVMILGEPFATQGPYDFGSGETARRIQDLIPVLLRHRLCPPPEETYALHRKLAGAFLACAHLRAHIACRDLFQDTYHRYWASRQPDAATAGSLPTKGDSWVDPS
Chain of CSNK1A1 (P48729 whole entry): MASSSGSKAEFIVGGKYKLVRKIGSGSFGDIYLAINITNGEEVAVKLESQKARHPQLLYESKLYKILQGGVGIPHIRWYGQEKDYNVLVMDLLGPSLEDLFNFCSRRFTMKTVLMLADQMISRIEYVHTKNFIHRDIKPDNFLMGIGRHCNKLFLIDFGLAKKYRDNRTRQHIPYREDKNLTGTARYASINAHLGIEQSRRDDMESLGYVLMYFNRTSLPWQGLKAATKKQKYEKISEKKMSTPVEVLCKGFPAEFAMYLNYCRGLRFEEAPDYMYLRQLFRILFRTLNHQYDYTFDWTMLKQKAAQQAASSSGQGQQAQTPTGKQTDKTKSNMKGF

As a reminder, the inhibition is the relative decrease from the control value, in per cent. On to `CNS(=O)(=O)c1ccc(N(C)C)c(Nc2nc(C)nc3cc(OC)c(OC)cc23)c1` [compound 15, 3-((6,7-dimethoxy-2-methylquinazolin-4-yl)amino)-4-(dimethylamino)-N-methylbenzenesulfonamide], for which the inhibition at 1 µM in experiment [1] stood at 31%; on ADCK4 it was 0%; at AKT2 it was 0%; at ALK it was 10%; at ASK1, 0%; on CAMKK2 it was 3%. For the same compound, the inhibition at 1 µM on CDC2L2 is 0%; at CSNK1A1 it was 0%; at EPHB3 it was 0%; at LRRK2, 0%; on MAP3K1, 27%; on MAPKAPK5, 23%. Moreover, the inhibition at 1 µM on NDR2 was 6%; on PIK3CA(E545K) it was 21%; on PIM2, 0%; on PRKX it was 0%; at QSK, 22%; at SGK3, 19%. For the same compound, the inhibition at 1 µM at STK33 was 0%; on TIE2 it was 6%; on TXK, 5%; at VRK2, 12%; on ZAP70 it was 0%; on p38-gamma, 17%.
